Data from ChEMBL document CHEMBL4270556, “Current progress on antioxidants incorporating the pyrazole core” (Eur J Med Chem, 2018).
pIC50: −log10 of the molar value. In brackets after ≈: the same amount, converted by molar mass.

Tests used:
THP-1 = assay: Antioxidant activity in human THP1 cells assessed as inhibition of macrophage-mediated LDL oxidation after 24 hrs in presence of CuSO4 by TBARS assay; type: functional, cell-based; conditions: THP-1, 24 h
[1] = Antioxidant activity assessed as DPPH radical scavenging activity at 80 ug/ml relative to control; type: functional
[2] = Antioxidant activity assessed as DPPH radical scavenging activity at 60 ug/ml relative to control; type: functional
[3] = Antioxidant activity assessed as DPPH radical scavenging activity at 40 ug/ml relative to control; type: functional
[4] = Antioxidant activity assessed as DPPH radical scavenging activity at 10 ug/ml after 20 mins by UV absorbance method relative to control; type: functional
[5] = Antioxidant activity assessed as DPPH radical scavenging activity at 100 mM after 30 mins relative to control; type: functional
[6] = Antioxidant activity assessed as ferric ion reducing activity after 20 mins in presence of potassium ferricyanide by FRAP assay relative to control; type: functional; parameters: scale not given: the % may be the effect or the level left
[7] = Antioxidant activity assessed as nitric oxide radical scavenging activity at 100 mM after 150 mins in presence of sodium nitroprusside relative to control; type: functional
[8] = Antioxidant activity assessed as inhibition of DPPH radical at 100 ug/ml relative to control; type: functional
[9] = Antioxidant activity assessed as DPPH radical scavenging activity at 10^-3 M relative to control; type: functional
[10] = Antioxidant activity assessed as DPPH radical scavenging activity at 30 to 50 ug/ml relative to control; type: functional
[11] = Antioxidant activity assessed as DPPH radical scavenging activity after 20 mins by UV absorbance method relative to control; type: functional
[12] = Antioxidant activity assessed as inhibition of lipid peroxidation relative to control; type: functional; conditions: dose or concentration not given here
[13] = Antioxidant activity assessed as radical scavenging activity at 30 to 50 ug/ml relative to control; type: functional
[14] = Antioxidant activity assessed as DPPH radical scavenging activity at 4 mM relative to control; type: functional
[15] = Antioxidant activity assessed as radical scavenging activity; type: functional

With `CC(C)(C)c1cc(C2=NNC(c3cc(C(C)(C)C)c(O)c(C(C)(C)C)c3)C2)cc(C(C)(C)C)c1O` (stereo not drawn) the pIC50 (THP-1) was 7.00.

With `CCOC(=O)C1=C(N)Oc2c(c(C)nn2C(=O)c2ccncc2)C1c1c(-c2ccccc2)[nH]c2ccccc12` (stereo not drawn) the Activity [1] was 70.2%, the Activity [2] was 74.5% and the Activity [3] was 66.6 to 76.1%.

With `O=C(c1ccc(Cl)cc1)N1N=C(Cn2c3ccccc3c3nc4cc(Cc5ccc6nc(-c7ccccc7)c(-c7ccccc7)nc6c5)ccc4nc32)CC1c1ccc(F)cc1` (stereo not drawn) the Activity [4] was 40.6%.

Work on `O=C(/C=C/c1cn(-c2ccccc2)nc1-c1ccc(Br)cc1)c1cccc(NC(=O)c2ccc(F)cc2)c1` yielded an Activity [5] of 36.8 to 42.3%, an Activity [6] of 44.4 to 55.5% and an Activity [7] of 32.4 to 77.9%.

`CCOC(=O)C1=C(N)Oc2c(c(C)nn2C(=O)c2ccncc2)C1c1c(-c2ccccc2)[nH]c2ccc(Cl)cc12` (stereo not drawn) showed an Activity [1] of 76.7%.

`CCOC(=O)c1c(C)nn(-c2cccc(Cl)c2)c1-c1cccc(Cl)c1` gave an inhibition [8] of 22.2 to 49.9%.

Work on `Nc1n[nH]c(-c2ccccc2)c1-c1nc2c(cnn2-c2ccccc2)c(=O)[nH]1` yielded an Activity of 92.3%.

Work on `O=C(Nc1ccc(Cl)cc1)NS(=O)(=O)c1ccc(N2N=C(c3ccco3)CC2c2cnn(-c3ccccc3)c2)cc1` (stereo not drawn) yielded an Activity [9] of 16%.

With `COc1ccc(C2C(c3ccc(Br)cc3)=NN(c3ccccc3)C2C#N)cc1` (stereo not drawn) the Activity [10] was under 60%.

Compound `Clc1ncnc2c1ncn2CC1CC(C2=NNC(Cn3cnc4c(Cl)ncnc43)C2)=NN1` (stereo not drawn) has an Activity [11] of 62 to 79%.

Work on `Cc1ccc(N2N=C(c3ccccc3)CC2Cn2cnc3c(N4CCOCC4)ncnc32)cc1` (stereo not drawn) yielded an Activity [11] of 43 to 44% and an inhibition [12] of 5.8%.

`O=C1[C@H]2C(c3ccccc3)=NN(c3ccccc3)[C@H]2C(=O)N1c1ccccc1` gave an Activity [13] of under 55%.

In the case of `COc1ccc(C2C(c3ccc(Cl)cc3)=NN(c3ccccc3)C2C#N)cc1` (stereo not drawn), the Activity [10] was under 60%.

In the case of `O=C(Nc1ccccc1)NS(=O)(=O)c1ccc(N2N=C(c3ccco3)CC2c2cnn(-c3ccccc3)c2)cc1` (stereo not drawn), the Activity [9] was 25%.

With `Cc1ccc(-n2nc(-c3ccccc3)cc2Cn2cnc3c(N4CCCCC4)ncnc32)cc1` the Activity [11] was 62 to 79%.

`CCOC(=O)c1c(C)nn(-c2ccccc2)c1-c1ccc([N+](=O)[O-])cc1` showed an inhibition [8] of 22.2 to 49.9%.

In the case of `CC(C)(C)OC(=O)N1CCN(c2ncnc3c2ncn3CC2CC(c3ccccc3)=NN2c2ccccc2)CC1` (stereo not drawn), the Activity [11] was 13 to 24% and the inhibition [12] was 54%.

In the case of `COc1ccc(C2C(c3ccc(OC)c(OC)c3)=NN(c3ccccc3)C2C#N)cc1` (stereo not drawn), the Activity [10] was 32%.

In the case of `COc1cc(C2=NN(c3ccccc3)[C@H]3C(=O)N(c4ccccc4)C(=O)[C@@H]23)cc(OC)c1OC`, the Activity [13] was under 55%.

With `COc1ccc(C2C(c3ccccc3)=NN(c3ccccc3)C2C#N)cc1` (stereo not drawn) the Activity [10] was under 45%.

`COc1ccc(C2C(c3ccc(C#N)cc3)=NN(c3ccccc3)C2C#N)cc1` (stereo not drawn) gave an Activity [10] of under 60%.

In the case of `NS(=O)(=O)c1ccc(N2N=C(c3cccs3)CC2c2cnn(-c3ccccc3)c2)cc1` (stereo not drawn), the Activity [9] was 29%.

Work on `COc1ccc(C2CC(Cn3c4ccccc4c4nc5cc(Cc6ccc7nc(-c8ccccc8)c(-c8ccccc8)nc7c6)ccc5nc43)=NN2C(=O)c2ccc(Cl)cc2)cc1` (stereo not drawn) yielded an Activity [4] of 59.4%.

Compound `COc1ccc(C2CC(Cn3c4ccccc4c4nc5cc(Cc6ccc7nc(-c8ccccc8)c(-c8ccccc8)nc7c6)ccc5nc43)=NN2C(=O)c2ccccc2)cc1` (stereo not drawn) has an Activity [4] of 50.5%.

Compound `O=C1O[C@H]([C@@H](O)CO)C(O)=C1O` has an inhibition [8] of 28.6%, an Activity [5] of 43% and an Activity [6] of 42.4%. It also gave an Activity [7] of 32.3%, an Activity [4] of 40% and an Activity of 92.7%.

`O=[N+]([O-])c1cccc(C2Nc3ccccc3-c3cc(-c4ccccc4)nn32)c1` (stereo not drawn) showed an Activity [14] of 96%.

For `NS(=O)(=O)c1ccc(N2N=C(c3ccco3)CC2c2cnn(-c3ccccc3)c2)cc1` (stereo not drawn), the Activity [9] was 23%.

Compound `COc1ccc(-c2nn(-c3ccccc3)cc2/C=C/C(=O)c2cccc(NC(=O)c3ccc(F)cc3)c2)cc1` has an Activity [6] of 44.4 to 55.5% and an Activity [7] of 32.4 to 77.9%.

With `Cc1ccc(N2N=C(c3ccccc3)CC2Cn2cnc3c(N4CCCCC4)ncnc32)cc1` (stereo not drawn) the Activity [11] was 13 to 24%.

Compound `O=S(=O)(NC(=S)Nc1ccc(F)cc1)c1ccc(N2N=C(c3ccco3)CC2c2cnn(-c3ccccc3)c2)cc1` (stereo not drawn) has an Activity [9] of 27%.

For `Oc1c(Cl)cc(Cl)cc1C1Nc2ccccc2-c2cc(-c3ccccc3)nn21` (stereo not drawn), the Activity [14] was 99%.

Compound `Cc1ccc(-n2nc(-c3ccccc3)cc2Cn2cnc3c(Cl)ncnc32)cc1` has an Activity [11] of 60%.

Work on `c1ccc(C2=NN(c3ccccc3)C(Cn3cnc4c(N5CCCCC5)ncnc43)C2)cc1` (stereo not drawn) yielded an Activity [11] of 13 to 24% and an inhibition [12] of 72%.

Compound `COc1ccc(C2=NN(c3ccccc3)[C@H]3C(=O)N(c4ccccc4)C(=O)[C@@H]23)cc1` has an Activity [13] of under 55%.

Work on `Nc1[nH]nc(NCc2ccccc2)c1-c1ccc([N+](=O)[O-])cc1` yielded an IC50 [15] of 800 mg/L (≈ 2590 µM).
